Results taken from article PMC10404814, “Fluorescent membrane potential assay for drug screening on Kv10.1 channel: identification of BL-1249 as a channel activator” (Frontiers in Pharmacology, 2023).

Assays:
Format in all cases: cell-based
Kv10.1 [1] = target: T1, Kv10.1 (Homo sapiens, UniProt O95259); assay: whole-cell voltage-clamp of HEK293 cells stably expressing human Kv10.[…]
T1 construct: gene KCNH1
T1 sequence (O95259 1-989): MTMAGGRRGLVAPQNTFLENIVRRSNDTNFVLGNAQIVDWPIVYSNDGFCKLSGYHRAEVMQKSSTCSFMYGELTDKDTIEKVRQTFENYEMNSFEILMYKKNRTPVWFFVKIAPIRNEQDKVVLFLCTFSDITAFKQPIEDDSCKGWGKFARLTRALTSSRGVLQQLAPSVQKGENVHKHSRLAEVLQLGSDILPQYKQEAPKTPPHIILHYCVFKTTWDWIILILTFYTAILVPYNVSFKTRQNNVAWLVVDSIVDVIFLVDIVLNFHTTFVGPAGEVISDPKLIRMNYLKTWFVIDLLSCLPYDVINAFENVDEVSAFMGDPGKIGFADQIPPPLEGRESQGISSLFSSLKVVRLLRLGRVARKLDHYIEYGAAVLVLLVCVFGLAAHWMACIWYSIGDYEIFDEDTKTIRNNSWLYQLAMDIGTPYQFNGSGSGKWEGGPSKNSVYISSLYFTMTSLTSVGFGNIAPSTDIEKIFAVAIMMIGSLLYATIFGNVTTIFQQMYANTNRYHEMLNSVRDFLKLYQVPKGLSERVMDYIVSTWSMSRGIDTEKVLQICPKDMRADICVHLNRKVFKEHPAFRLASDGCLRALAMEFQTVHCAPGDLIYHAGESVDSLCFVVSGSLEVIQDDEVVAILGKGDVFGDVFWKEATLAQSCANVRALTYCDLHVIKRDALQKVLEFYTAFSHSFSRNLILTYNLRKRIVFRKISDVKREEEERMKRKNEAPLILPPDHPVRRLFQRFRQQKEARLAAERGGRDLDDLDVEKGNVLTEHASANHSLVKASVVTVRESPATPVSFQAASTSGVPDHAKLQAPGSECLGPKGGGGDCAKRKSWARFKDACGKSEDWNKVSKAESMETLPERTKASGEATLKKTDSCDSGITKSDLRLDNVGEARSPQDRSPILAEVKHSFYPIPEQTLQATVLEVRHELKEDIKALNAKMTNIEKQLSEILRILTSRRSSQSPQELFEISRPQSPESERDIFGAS

Kv10.1 [2] = target: T1, Kv10.1; assay: FLIPR membrane potential assay in HEK-Kv10.[…] cells, […]; details: read-out: % decrease at 100 μM
Kv10.1 [3] = target: T1, Kv10.1; assay: as above; details: read-out: % decrease at 50 μM
Kv10.1 [4] = target: T1, Kv10.1; assay: whole-cell voltage-clamp of HEK293 cells stably expressing human Kv10.[…] (activator); no effect in HEK-WT

In the case of Clc1ccc(COC(Cn2ccnc2)c2ccc(Cl)cc2Cl)c(Cl)c1 (stereo not drawn) [MN, miconazole nitrate], the IC50 (Kv10.1 [1]) is reported as 23.6 ± 5 µM.
In the case of CN(C)CCC=C1c2ccccc2CCc2ccccc21 [amitriptyline], the inhibition at 100 µM (Kv10.1 [2]) is reported as 25.5%.
COc1ccc(CCN2CCC(Nc3nc4ccccc4n3Cc3ccc(F)cc3)CC2)cc1 [astemizole] showed an inhibition at 50 µM (Kv10.1 [3]) of 34.8%.
c1ccc(-c2nnn[nH]2)c(Nc2cccc3c2CCCC3)c1 [BL, BL-1249] was tested, and the EC50 (Kv10.1 [4]) was 36.5 µM.
In the case of CN(C)C(=O)C(CCN1CCC(O)(c2ccc(Cl)cc2)CC1)(c1ccccc1)c1ccccc1 [loperamide], the inhibition at 100 µM (Kv10.1 [2]) is reported as 31.9%.
Compound CNCCC(Oc1ccc(C(F)(F)F)cc1)c1ccccc1 (stereo not drawn) [fluoxetine] has an IC50 (Kv10.1 [1]) of 11.2 ± 6.2 µM.
